Assay results reported in ChEMBL document CHEMBL2202959, “Essential structure of opioid κ receptor agonist nalfurafine for binding to the κ receptor 3: synthesis of decahydro(iminoethano)phenanthrene derivatives with an oxygen functionality at the 3-position and their pharmacologies” (Bioorg Med Chem Lett, 2012).

Tests used:
[1] = Selectivity ratio of Ki for delta opioid receptor in mouse whole brain membranes without cerebellum to Ki for kappa opioid receptor in guinea pig cerebellum membranes; type: cell membranes
[2] = Selectivity ratio of Ki for mu opioid receptor in mouse whole brain membranes without cerebellum to Ki for kappa opioid receptor in guinea pig cerebellum membranes; type: cell membranes
[3] = target: Kappa-type opioid receptor (Cavia porcellus, UniProt P41144); test: Displacement of [3H]U-69,593 from kappa opioid receptor in guinea pig cerebellum membranes; type: cell membranes, Membrane
Sequence of Kappa-type opioid receptor (P41144 whole entry): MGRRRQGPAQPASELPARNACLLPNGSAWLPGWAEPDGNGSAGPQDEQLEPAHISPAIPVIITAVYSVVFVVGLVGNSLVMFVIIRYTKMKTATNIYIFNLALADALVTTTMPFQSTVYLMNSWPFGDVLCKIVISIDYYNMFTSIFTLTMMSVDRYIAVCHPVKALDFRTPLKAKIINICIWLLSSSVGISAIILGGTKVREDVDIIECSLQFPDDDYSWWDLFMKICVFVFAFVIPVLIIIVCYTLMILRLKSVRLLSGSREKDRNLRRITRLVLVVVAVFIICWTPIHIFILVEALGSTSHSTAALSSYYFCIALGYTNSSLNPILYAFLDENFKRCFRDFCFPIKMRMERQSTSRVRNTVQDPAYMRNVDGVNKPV

[4] = target: Delta-type opioid receptor (Mus musculus, UniProt P32300); test: Displacement of [3H]DPDPE from delta opioid receptor in mouse whole brain membranes without cerebellum; type: cell membranes, Membrane
Sequence of Delta-type opioid receptor (P32300 whole entry): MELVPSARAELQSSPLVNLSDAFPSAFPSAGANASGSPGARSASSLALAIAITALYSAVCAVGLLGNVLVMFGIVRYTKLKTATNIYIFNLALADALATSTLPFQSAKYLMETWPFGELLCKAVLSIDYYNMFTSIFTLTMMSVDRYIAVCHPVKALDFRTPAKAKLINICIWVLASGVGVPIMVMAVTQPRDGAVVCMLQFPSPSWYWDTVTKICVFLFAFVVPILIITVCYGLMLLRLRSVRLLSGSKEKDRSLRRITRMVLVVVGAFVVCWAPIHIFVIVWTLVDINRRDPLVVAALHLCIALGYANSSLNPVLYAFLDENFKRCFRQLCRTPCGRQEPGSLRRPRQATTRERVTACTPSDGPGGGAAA

[5] = target: Mu-type opioid receptor (Mus musculus, UniProt P42866); test: Displacement of [3H]DAMGO from mu opioid receptor in mouse whole brain membranes without cerebellum; type: cell membranes, Membrane
Sequence of Mu-type opioid receptor (P42866 whole entry): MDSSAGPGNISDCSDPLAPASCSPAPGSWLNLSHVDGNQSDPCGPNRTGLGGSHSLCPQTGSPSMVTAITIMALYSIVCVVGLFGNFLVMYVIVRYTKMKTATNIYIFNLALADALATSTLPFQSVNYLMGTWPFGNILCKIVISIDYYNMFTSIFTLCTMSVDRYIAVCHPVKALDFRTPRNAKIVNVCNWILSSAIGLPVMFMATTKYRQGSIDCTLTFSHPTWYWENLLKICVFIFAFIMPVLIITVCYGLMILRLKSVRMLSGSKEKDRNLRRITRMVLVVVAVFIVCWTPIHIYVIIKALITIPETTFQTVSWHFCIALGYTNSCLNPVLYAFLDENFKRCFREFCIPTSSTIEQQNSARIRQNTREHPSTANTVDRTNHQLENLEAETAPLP

Q: What does the source list for `CN(C(=O)/C=C/c1ccoc1)[C@H]1CC[C@@]2(O)[C@H]3CC4=C(C[C@H](O)CC4)[C@@]2(CCN3CC2CC2)C1`?
A: Ratio Ki [1]: 7.7; Ratio Ki [2]: 4.8; Ki [3]: 1.1 nM; Ki [4]: 8.45 nM; Ki [5]: 5.26 nM

Q: What does the source list for `CN(C(=O)/C=C/c1ccoc1)[C@H]1CC[C@H]2[C@H]3CC4=C(CCCC4)[C@@]2(CCN3CC2CC2)C1`?
A: Ratio Ki [1]: 14; Ratio Ki [2]: 3.8; Ki [3]: 2.28 nM; Ki [4]: 32.9 nM; Ki [5]: 8.62 nM

Q: With `CN(C(=O)/C=C/c1ccoc1)[C@H]1CC[C@@]2(O)[C@H]3Cc4cccc5c4[C@@]2(CCN3CC2CC2)[C@H]1O5` as the compound, how does the Ratio Ki [1] read?
A: 146

Q: What about the Ratio Ki [2] of the same compound?
A: 26

Q: And the Ki [3]?
A: 0.34 nM

Q: And the Ki [4]?
A: 49.5 nM

Q: What about the Ki [5] of the same compound?
A: 8.88 nM

Q: Which Ratio Ki [1] does the source give for `CN(C(=O)/C=C/c1ccoc1)[C@@H]1CC[C@@]2(O)[C@H]3CC4=C(C[C@H](O)CC4)[C@@]2(CCN3CC2CC2)C1` here?
A: 65

Q: What about the Ratio Ki [2] of the same compound?
A: 79

Q: What about the Ki [3] of the same compound?
A: 0.733 nM

Q: What about the Ki [4] of the same compound?
A: 47.5 nM

Q: What about the Ki [5] of the same compound?
A: 57.6 nM

Q: What does the source list for `CN(C(=O)/C=C/c1ccoc1)[C@H]1CC[C@@]2(O)[C@H]3Cc4ccc(O)cc4[C@@]2(CCN3CC2CC2)C1`?
A: Ratio Ki [1]: 3.8; Ratio Ki [2]: 2; Ki [3]: 0.163 nM; Ki [4]: 0.623 nM; Ki [5]: 0.324 nM

Q: With `CN(C(=O)/C=C/c1ccoc1)[C@H]1CC[C@@]2(O)[C@H]3Cc4ccccc4[C@@]2(CCN3CC2CC2)C1` as the compound, how does the Ratio Ki [1] read?
A: 19

Q: And the Ratio Ki [2]?
A: 22

Q: And the Ki [3]?
A: 0.303 nM

Q: And the Ki [4]?
A: 5.65 nM

Q: What about the Ki [5] of the same compound?
A: 6.52 nM

Q: With `CN(C(=O)/C=C/c1ccoc1)[C@H]1CC[C@@]2(O)[C@H]3CC4=C(C[C@@H](O)CC4)[C@@]2(CCN3CC2CC2)C1` as the compound, how does the Ratio Ki [1] read?
A: 19

Q: What about the Ratio Ki [2] of the same compound?
A: 12

Q: And the Ki [3]?
A: 0.451 nM

Q: What about the Ki [4] of the same compound?
A: 8.66 nM

Q: What about the Ki [5] of the same compound?
A: 5.49 nM

Q: With `CN(C(=O)/C=C/c1ccoc1)[C@H]1CC[C@@]2(O)[C@H]3CC4=C(CCCC4)[C@@]2(CCN3CC2CC2)C1` as the compound, how does the Ratio Ki [1] read?
A: 13

Q: And the Ratio Ki [2]?
A: 71

Q: What about the Ki [3] of the same compound?
A: 2.06 nM

Q: What about the Ki [4] of the same compound?
A: 26.4 nM

Q: What about the Ki [5] of the same compound?
A: 147 nM

Q: For `CN(C(=O)/C=C/c1ccoc1)[C@@H]1CC[C@@]2(O)[C@H]3Cc4ccccc4[C@@]2(CCN3CC2CC2)C1`, which Ratio Ki [1] is on record?
A: 95

Q: What about the Ratio Ki [2] of the same compound?
A: 36

Q: And the Ki [3]?
A: 0.34 nM

Q: And the Ki [4]?
A: 32.4 nM

Q: And the Ki [5]?
A: 12.3 nM

Q: Which results are given for `CN(C(=O)/C=C/c1ccoc1)[C@H]1CC[C@@]2(O)[C@H]3CC4=C(CC(=O)CC4)[C@@]2(CCN3CC2CC2)C1`?
A: Ratio Ki [1]: 20; Ratio Ki [2]: 12; Ki [3]: 2.23 nM; Ki [4]: 44.5 nM; Ki [5]: 26 nM

Q: For `CN(C(=O)/C=C/c1ccoc1)[C@@H]1CC[C@@]2(O)[C@H]3CC4=C(C[C@@H](O)CC4)[C@@]2(CCN3CC2CC2)C1`, which Ratio Ki [1] is on record?
A: 328

Q: What about the Ratio Ki [2] of the same compound?
A: 49

Q: And the Ki [3]?
A: 0.711 nM

Q: And the Ki [4]?
A: 233 nM

Q: What about the Ki [5] of the same compound?
A: 34.7 nM

Q: Which Ratio Ki [1] does the source give for `CN(C(=O)/C=C/c1ccoc1)[C@@H]1CC[C@@]2(O)[C@H]3CC4=C(CC(=O)CC4)[C@@]2(CCN3CC2CC2)C1` here?
A: 5.1

Q: And the Ratio Ki [2]?
A: 3.5

Q: And the Ki [3]?
A: 14.5 nM

Q: What about the Ki [4] of the same compound?
A: 74.2 nM

Q: And the Ki [5]?
A: 51.1 nM
